The values below come from paper PMC12735969, “Regulation of NAD^+ Homeostasis by SsNrtR in Streptococcus Sobrinus: A Critical Determinant of Its Cariogenic Potential” (Pathogens, 2025).

The target in this assay is T1, SsNrtR (Streptococcus sobrinus, UniProt A0ABM6W328).
T1 construct: gene DK182_01300; full-length, hexahistidine tag, pET28b-nrtR, E. coli BL21(DE3), Ni-NTA and Superdex 200; about 28 kDa; dimer and oligomers
Put plainly: EMSA, release from pnuC/pncB promoter DNA. The format is binding. The settings on record: ADPR 0-1.0 mM; 200 bp pnuC/pncB promoter probe; allosteric anti-repressor. Background: In EMSA bound probe runs differently from free probe, usually more slowly.

As to `Nc1ncnc2c1ncn2[C@@H]1O[C@H](COP(=O)(O)OP(=O)(O)OC[C@H]2OC(O)[C@H](O)[C@@H]2O)[C@@H](O)[C@H]1O` (stereo partly shown) [ADP-ribose], the “EMSA, release from pnuC/pncB promoter DNA” value was “the interaction between SsNrtR and the pnuC/pncB DNA probe was disrupted by ADPR”.
